Results on 28 compounds are retold here after patent publication US8846933B2, “N-link hydroxamic acid derivatives useful as antibacterial agents” (Pfizer Inc., priority 2009, dated 2014).

Where only a bound is given, the exact number is not on record here.

Assay [1] deals with Escherichia coli EC-1: VOGEL, mouse virulent. Description: MIC determination (CLSI), strain EC-1. The note with it: strain EC-1, unit assumed. Format: cell-based. Here is the method:
(§1) The in vitro antibacterial activity of compounds described in the Examples was evaluated by minimum inhibitory concentration (MIC) testing according to Clinical and Laboratory Standards Institute (CLSI, formerly NCCLS) guidelines. See: Clinical and Laboratory Standards Institute. Methods for Dilution Antimicrobial Susceptibility Tests for Bacteria that Grow Aerobically; Approved Standard-Seventh Edition. CLSI document M7-A7 [ISBN 1-56238-587-9]. Clinical and Laboratory Standards Institute, 940 West Valley Road, Suite 1400, Wayne, Pa. 19087-1898 USA, 2006; also Clinical and Laboratory Standards Institute. Performance Standards for Antimicrobial Susceptibility Testing; Eighteenth Informational Supplement. CLSI document M100-S18 [ISBN1-56238-653-0].Clinical and Laboratory Standards Institute.
(§2) The following bacterial strains were used in these MIC determinations:
3) Escherichia coli EC-1: VOGEL, mouse virulent labeled as EC-1 in Tables 4 and 5;

The test system of assay [2] is Pseudomonas aeruginosa UI-18: Wild-type (PA-7). Description: MIC determination (CLSI), strain PA-7. As to conditions: strain PA-7, unit assumed. The class given is cell-based. As for the experimental part:
as §1, §2
1) Pseudomonas aeruginosa UI-18: Wild-type, labeled as PA-7 in Tables 4, and 5;

[3] abbreviates: generated in the same manner as in Table 4.

In turn, `CC(CCn1ccc(-c2ccc(OCCCN3CCOCC3)c(Cl)c2)cc1=O)(C(=O)NO)S(C)(=O)=O` (centres unmarked) [Example 221, 4-{4-[3-chloro-4-(3-morpholin-4-ylpropoxy)phenyl]-2-oxopyridin-1(2H)-yl}-N-hydroxy-2-methyl-2-(methylsulfonyl)butanamide] gave an EC-1 (MIC) in assay [1] of 2 µg/mL. This compound also came in with a PA-7 (MIC) in assay [2] of 8 µg/mL.

`CC(CCn1ccc(-c2ccc(OCCCc3ccncc3)cc2)cc1=O)(C(=O)NO)S(C)(=O)=O` (centres unmarked) [Example 89] had an EC-1 (MIC) in assay [1] (setting [3]) of 0.25 µg/mL. This compound also registered a PA-7 (MIC) in assay [2] (setting [3]) of 2 µg/mL.

With `CC(CCn1ccc(-c2cccc(F)c2F)cc1=O)(C(=O)NO)S(C)(=O)=O` (centres unmarked) [Example 147, 4-[4-(2,3-difluorophenyl)-2-oxopyridin-1(2H)-yl]-N-hydroxy-2-methyl-2-(methylsulfonyl)butanamide], the EC-1 (MIC) in assay [1] (setting [3]) stood at 2 µg/mL. Moreover, in assay [2] (setting [3]), the PA-7 (MIC) is 1 µg/mL.

Regarding `CC(CCn1ccc(-c2ccc3c(ccn3CCO)c2)cc1=O)(C(=O)NO)S(C)(=O)=O` (centres unmarked) [Example 265, N-hydroxy-4-{4-[1-(2-hydroxyethyl)-1H-indol-5-yl]-2-oxopyridin-1(2H)-yl}-2-methyl-2-(methylsulfonyl)butanamide], in assay [1], the EC-1 (MIC) worked out at 4 µg/mL. The PA-7 (MIC) in assay [2] turned out to be 16 µg/mL.

As to `Cc1cc(-c2ccc(-c3ccn(CC[C@](C)(C(=O)NO)S(C)(=O)=O)c(=O)c3)cc2)no1` [Example 370, (2R)-N-hydroxy-2-methyl-4-{4-[4-(5-methylisoxazol-3-yl)phenyl]-2-oxopyridin-1(2H)-yl}-2-(methylsulfonyl)butanamide], the EC-1 (MIC) in assay [1] came out at 0.125 µg/mL. The compound further gave a PA-7 (MIC) in assay [2] of 0.5 µg/mL.

`COc1ccc(-c2ccn(CC[C@](C)(C(=O)NO)S(C)(=O)=O)c(=O)c2)c(Cl)c1` [Example 342, (2R)-4-[4-(2-chloro-4-methoxyphenyl)-2-oxopyridin-1(2H)-yl]-N-hydroxy-2-methyl-2-(methylsulfonyl)butanamide] yielded an EC-1 (MIC) in assay [1] of 0.5 µg/mL. The compound also displayed a PA-7 (MIC) in assay [2] of 0.5 µg/mL.

In turn, `CC(CCn1ccc(-c2ccc(-c3ccc(F)cc3)nc2)cc1=O)(C(=O)NO)S(C)(=O)=O` (centres unmarked) [Example 281, 4-[6-(4-fluorophenyl)-2′-oxo-3,4′-bipyridin-1′(2′H)-yl]-N-hydroxy-2-methyl-2-(methylsulfonyl)butanamide] came in with an EC-1 (MIC) in assay [1] of 0.5 µg/mL. In addition, the PA-7 (MIC) in assay [2] amounted to 8 µg/mL.

For the compound `CC(CCn1ccc(-c2ccc(OCCCCO)c(F)c2)cc1=O)(C(=O)NO)S(C)(=O)=O` (centres unmarked) [Example 240, 4-{4-[3-fluoro-4-(4-hydroxybutoxy)phenyl]-2-oxopyridin-1(2H)-yl}-N-hydroxy-2-methyl-2-(methylsulfonyl)butanamide], in assay [1], the EC-1 (MIC) turned out to be 1 µg/mL. For the same compound, in assay [2], the PA-7 (MIC) turned out to be 4 µg/mL.

On to `COc1c(F)cc(-c2ccn(CC[C@](C)(C(=O)NO)S(C)(=O)=O)c(=O)c2)cc1F` [Example 459], for which the EC-1 (MIC) in assay [1] is 2 µg/mL. In assay [2], this compound showed a PA-7 (MIC) of 2 µg/mL.

In assay [1] (setting [3]), `CN1Cc2cc(-c3ccn(CCC(C)(C(=O)NO)S(C)(=O)=O)c(=O)c3)ccc2C1=O` (centres unmarked) [Example 179, N-hydroxy-2-methyl-4-[4-(2-methyl-1-oxo-2,3-dihydro-1H-isoindol-5-yl)-2-oxopyridin-1(2H)-yl]-2-(methylsulfonyl)butanamide] displayed an EC-1 (MIC) above 64 µg/mL. Moreover, the PA-7 (MIC) in assay [2] (setting [3]) is above 64 µg/mL.

`C[C@@](CCn1ccc(-c2ccc(OC(F)(F)F)cc2F)cc1=O)(C(=O)NO)S(C)(=O)=O` [Example 354, (2R)-4-{4-[2-fluoro-4-(trifluoromethoxy)phenyl]-2-oxopyridin-1(2H)-yl}-N-hydroxy-2-methyl-2-(methylsulfonyl)butanamide] displayed an EC-1 (MIC) in assay [1] of 0.25 µg/mL. Moreover, the PA-7 (MIC) in assay [2] is 0.5 µg/mL.

In the case of `CC(CCn1ccc(-c2cc3ccccc3[nH]2)cc1=O)(C(=O)NO)S(C)(=O)=O` (centres unmarked) [Example 91], the EC-1 (MIC) in assay [1] (setting [3]) was 4 µg/mL. In assay [2] (setting [3]), this compound displayed a PA-7 (MIC) of 16 µg/mL.

The compound `CC(CCn1ccc(-c2cnc3ccccc3c2)cc1=O)(C(=O)NO)S(C)(=O)=O` (centres unmarked) [Example 124, N-hydroxy-2-methyl-2-(methylsulfonyl)-4-(2-oxo-4-quinolin-3-ylpyridin-1(2H)-yl)butanamide] displayed an EC-1 (MIC) in assay [1] (setting [3]) of 16 µg/mL. This compound showed a PA-7 (MIC) in assay [2] (setting [3]) of 16 µg/mL.

`C[C@@](CCn1ccc(-c2ccc3c(c2)C(=O)OCC3)cc1=O)(C(=O)NO)S(C)(=O)=O` [Example 481] returned an EC-1 (MIC) in assay [1] above 64 µg/mL. The same compound yielded a PA-7 (MIC) in assay [2] of 64 µg/mL.

Compound `COc1cc(-c2ccn(CCC(C)(C(=O)NO)S(C)(=O)=O)c(=O)c2)ccc1OCCCN1CCOCC1` (centres unmarked) [Example 227, N-hydroxy-4-{4-[3-methoxy-4-(3-morpholin-4-ylpropoxy)phenyl]-2-oxopyridin-1(2H)-yl}-2-methyl-2-(methylsulfonyl)butanamide] showed an EC-1 (MIC) in assay [1] of 64 µg/mL. In assay [2], this compound came in with a PA-7 (MIC) of 64 µg/mL.

In the case of `CC(CCn1ccc(-c2cccc(O)c2F)cc1=O)(C(=O)NO)S(C)(=O)=O` (centres unmarked) [Example 96], the EC-1 (MIC) in assay [1] (setting [3]) was 64 µg/mL. For the same compound, the PA-7 (MIC) in assay [2] (setting [3]) is above 64 µg/mL.

In assay [1], `Cc1cccc(-c2ccc(-c3ccn(CC[C@](C)(C(=O)NO)S(C)(=O)=O)c(=O)c3)cc2)n1` [Example 422, (2R)-N-hydroxy-2-methyl-4-{4-[4-(6-methylpyridin-2-yl)phenyl]-2-oxopyridin-1(2H)-yl}-2-(methylsulfonyl)butanamide] yielded an EC-1 (MIC) of 0.5 µg/mL. For the same compound, the PA-7 (MIC) in assay [2] amounted to 4 µg/mL.

For the compound `Cc1nnn(-c2ccc(-c3ccn(CC[C@](C)(C(=O)NO)S(C)(=O)=O)c(=O)c3)cc2)n1` [Example 379, (2R)-N-hydroxy-2-methyl-2-(methylsulfonyl)-4-{4-[4-(5-methyl-2H-tetrazol-2-yl)phenyl]-2-oxopyridin-1(2H)-yl}butanamide], the EC-1 (MIC) in assay [1] is 0.5 µg/mL. Further, in assay [2], the PA-7 (MIC) was determined as 2 µg/mL.

In assay [1], `C[C@@](CCn1ccc(-c2ccc(-c3cncnc3)cc2)cc1=O)(C(=O)NO)S(C)(=O)=O` [Example 423] displayed an EC-1 (MIC) of 1 µg/mL. Also, in assay [2], the PA-7 (MIC) is 4 µg/mL.

In assay [1], `Cc1cc(OCCCCO)ccc1-c1ccn(CCC(C)(C(=O)NO)S(C)(=O)=O)c(=O)c1` (centres unmarked) [Example 243, N-hydroxy-4-{4-[4-(4-hydroxybutoxy)-2-methylphenyl]-2-oxopyridin-1(2H)-yl}-2-methyl-2-(methylsulfonyl)butanamide] gave an EC-1 (MIC) of 4 µg/mL. This compound also showed a PA-7 (MIC) in assay [2] of 8 µg/mL.

In turn, `CC(CCn1ccc(-c2ccccc2F)cc1=O)(C(=O)NO)S(C)(=O)=O` (centres unmarked) [Example 159, 4-[4-(2-fluorophenyl)-2-oxopyridin-1(2H)-yl]-N-hydroxy-2-methyl-2-(methylsulfonyl)butanamide] yielded an EC-1 (MIC) in assay [1] (setting [3]) of 2 µg/mL. In addition, in assay [2] (setting [3]), the PA-7 (MIC) was 2 µg/mL.

As to `CC(CCn1ccc(-c2ccc(OCCCN3CCCC(F)(F)C3)cc2)cc1=O)(C(=O)NO)S(C)(=O)=O` (centres unmarked) [Example 100, 4-[4-{4-[3-(3,3-difluoropiperidin-1-yl)propoxy]phenyl}-2-oxopyridin-1(2H)-yl]-N-hydroxy-2-methyl-2-(methylsulfonyl)butanamide], in assay [1] (setting [3]), the EC-1 (MIC) stood at 1 µg/mL. In assay [2] (setting [3]), the PA-7 (MIC) came out at 8 µg/mL.

With `Cc1nn(-c2ccc(-c3ccn(CC[C@](C)(C(=O)NO)S(C)(=O)=O)c(=O)c3)cc2)nc1C` [Example 373, (2R)-4-{4-[4-(4,5-dimethyl-2H-1,2,3-triazol-2-yl)phenyl]-2-oxopyridin-1(2H)-yl}-N-hydroxy-2-methyl-2-(methylsulfonyl)butanamide], the EC-1 (MIC) in assay [1] came to 0.125 µg/mL. Also, the PA-7 (MIC) in assay [2] turned out to be 1 µg/mL.

In assay [1], `Cc1cc(SCC#N)ccc1-c1ccn(CC[C@](C)(C(=O)NO)S(C)(=O)=O)c(=O)c1` [Example 356, (2R)-4-[4-{4-[(cyanomethyl)thio]-2-methylphenyl}-2-oxopyridin-1(2H)-yl]-N-hydroxy-2-methyl-2-(methylsulfonyl)butanamide] registered an EC-1 (MIC) of 16 µg/mL. In assay [2], this compound came in with a PA-7 (MIC) of 4 µg/mL.

`CC(CCn1ccc(-c2ccc(Cl)c(C#N)c2)cc1=O)(C(=O)NO)S(C)(=O)=O` (centres unmarked) [Example 135, 4-[4-(4-chloro-3-cyanophenyl)-2-oxopyridin-1(2H)-yl]-N-hydroxy-2-methyl-2-(methylsulfonyl)butanamide] showed an EC-1 (MIC) in assay [1] (setting [3]) of 16 µg/mL. Besides, the PA-7 (MIC) in assay [2] (setting [3]) worked out at 16 µg/mL.

Take `C[C@@](CCn1ccc(-c2ccc(-c3ccncn3)cc2)cc1=O)(C(=O)NO)S(C)(=O)=O` [Example 400, (2R)-N-hydroxy-2-methyl-2-(methylsulfonyl)-4-[2-oxo-4-(4-pyrimidin-4-ylphenyl)pyridin-1(2H)-yl]butanamide]: the EC-1 (MIC) in assay [1] stood at 1 µg/mL. Moreover, in assay [2], the PA-7 (MIC) stood at 2 µg/mL.

In assay [1], `C[C@@](CCn1ccc(-c2ccc(OCCCCO)cc2)cc1=O)(C(=O)NO)S(C)(=O)=O` [Example 279, (2R)-N-hydroxy-4-{4-[4-(4-hydroxybutoxy)phenyl]-2-oxopyridin-1(2H)-yl}-2-methyl-2-(methylsulfonyl)butanamide] had an EC-1 (MIC) of 0.5 µg/mL. Besides, in assay [2], the PA-7 (MIC) worked out at 1 µg/mL.

As to `COc1cnc(-c2ccc(-c3ccn(CC[C@](C)(C(=O)NO)S(C)(=O)=O)c(=O)c3)cc2)nc1` [Example 387, (2R)-N-hydroxy-4-{4-[4-(5-methoxypyrimidin-2-yl)phenyl]-2-oxopyridin-1(2H)-yl}-2-methyl-2-(methylsulfonyl)butanamide], the EC-1 (MIC) in assay [1] was 0.06 µg/mL. In assay [2], this compound showed a PA-7 (MIC) of 0.5 µg/mL.
